# According to US20230285282A1, “OCULAR IMPLANT CONTAINING AN ACTIVE INGREDIENT” (OCULAR THERAPEUTIX, INC., priority 2020, published 2023):
# Like-named read-outs stand apart in the source and are kept apart here.
# Assays:
# [1] = cited from earlier work
# CYP3A4/5 = settings: cited from earlier work
# physchem = settings: PBS, 37 °C, pH 7.2, aqueous buffer
# vascular leakage = assay: VEGF challenge, vascular leakage scored by fluorescein angiography; format: in vivo, Dutch belted rabbits
# Protocol: For efficacy studies, 12 animals (with and without the implant) received an […] VEGF challenge (1 μg) 48 hours prior to selected time points (1, 2, 3, and 6 months after implant injection; 3 animals euthanized at each time point) to induce vascular proliferation and leakage. Rabbits were followed for 6 months from the administration of the implant. Eyes were imaged 48 hours post VEGF challenge using fluorescein angiography (FA) after intravenous injection of fluorescein and were graded on a scale from 0 to 4 (Table 9). Each eye was scored on the left and right side to account for non-uniformity in inflammatory response. FA scores were then averaged for each eye.
# Animals from each group were […] challenged with VEGF (1 μg) 48 hours prior to selected time points (0.5, 1, 3, 6, 9, 12, 14, 16, 19, 20, and 21 months) to induce vascular proliferation and leakage. Eyes were imaged 48 hours post VEGF challenge time-points using fluorescein angiography (FA) and were graded on a scale from 0 (normal) to 4 (severe leakage) as described under Example 3.2.
# [2] = 1.25 mg intravitreal, rabbits; cited from earlier work
compound,measurement,setting,value
"CNC(=O)c1ccccc1Sc1ccc2c(/C=C/c3ccccn3)n[nH]c2c1 [axitinib, N-methyl-2-[3-((E)-2-pyridin-2-yl-vinyl)-1H-indazol-6-ylsulfanyl]-benzamide]",clearance half-life (t1/2),[1]; Rugo et al. 2005,a few hours
same,axitinib exposure (Cmax),CYP3A4/5; co-administration with oral ketoconazole,increased
same,axitinib exposure (Cmax),CYP3A4/5; co-administration with rifamycin,decreased
same,solubility,physchem,0.4 to 0.5 µg/mL
aflibercept: anti-VEGF agent,t1/2 in the human eye,[1],several days
Avastin®: anti-VEGF therapeutic,duration of effect post injection,vascular leakage; 1.25 mg Avastin only,≤ 3 months
same,vascular leakage after VEGF challenge,vascular leakage; 1.25 mg Avastin only (group 3),after 3 months vascular leakage re-occurred
same,half-life,[2],158 h
ranibizumab: anti-VEGF agent,t1/2 in the human eye,[1],several days
